In US3976663A, “Certain cyclopropane carboxylic acid esters of 2,3-dihyrobenzofuran-3-ols” (The Procter & Gamble Company, priority 1971, dated 1976):
Like-named read-outs stand apart in the source and are kept apart here.

Tests used:
houseflies [1] = test: Housefly mortality tests, spray tower (Example IV); assay type: in vivo; conditions: for housefly mortality compared with the chrysanthemates of Table 1: equivalent amount in the test of Example IV; for % Mortality (24 hr.): 10 second spray
Method: (§1) 3-Coumaranyl chrysanthemate, 5-chloro-3-coumaranyl chrysanthemate, 5-methoxy-3-coumaranyl chrysanthemate, and natural pyrethrum, respectively, were dissolved in acetone and dispersed in distilled water with Triton X-100 emulsifier. The samples were applied for a 10 second period to houseflies retained in a 2 inch × 5 inch diameter screened cage. The spray is applied from the Water's vertical spray tower operating at 10 p.s.i. and discharging about 30 ml. of material per minute through an atomizer. The spray descends through an 8 inch stainless steel cylinder to test insects below the atomizer. The insects were retained in the sprayed cages for mortality observations.

11 other insects = test: Insect mortality tests, Example VI as a whole; assay type: in vivo
Method: as §1
(§2) All test species except the webbing clothes moth larvae were sprayed in the Water's vertical spray tower as described in Example IV. For the fabric tests, a two inch square area of wool fabric was dipped in the test formulations.

German cockroaches = test: Residual activity against cockroaches on treated panels (Example V); assay type: in vivo; conditions: Blattella germanica, 48 h
From the text: (§3) 3-Coumaranyl chrysanthemate and natural pyrethrum, respectively, were formulated in deodorized kerosene to give a deposit rate of 100 milligrams per square foot of area for residual evaluation against houseflies and 200 and 400 milligrams per square foot of area for residual evaluation against German cockroaches. The formulations were uniformly applied at the rate of 8 milliliters/sq.ft. on unpainted plywood and 3.5 milliliters/sq.ft. on vinyl asbestos with a camel hair brush. Adult insects were exposed to each treated panel for one hour (houseflies) or two hours (cockroaches), transferred to clean cages, and held for mortality counts. The same treated panels were used for re-exposures after the aging period indicated.

[2] = system: Webbing clothes moth larvae; test: Insect mortality test, wool fabric dipped in test formulation (Example VI); assay type: in vivo; conditions: 0.05 + 0.2 synergist (piperonyl butoxide) % W/V, 7 days
From the text: as §2

houseflies [3] = test: Residual activity against houseflies on treated panels (Example V); assay type: in vivo; conditions: 100 milligrams per square foot, one hour exposure
From the text: as §3

Adult stable flies = test: Insect mortality test, spray tower (Example VI); assay type: in vivo; conditions: 0.05 + 0.2 synergist (piperonyl butoxide) % W/V, 1 day
Method: as §1, §2

Southern Armyworm = test: Insect mortality test, spray tower (Example VI); assay type: in vivo; conditions: 0.05 + 0.2 synergist (piperonyl butoxide) % W/V, 2 days
Method: as §1, §2

Adult mosquito = test: Insect mortality test, spray tower (Example VI); assay type: in vivo; conditions: 0.05 + 0.2 synergist (piperonyl butoxide) % W/V, 1 day
Method: as §1, §2

[4] = system: Adult saw toothed grain beetles; test: Insect mortality test, spray tower (Example VI); assay type: in vivo; conditions: 0.05 + 0.2 synergist (piperonyl butoxide) % W/V, 3 days
Method: as §1, §2

Mexican Bean Beetle = test: Insect mortality test, spray tower (Example VI); assay type: in vivo; conditions: 0.005 + 0.02 synergist (piperonyl butoxide) % W/V, 2 days
Method: as §1, §2

[5] = system: Black carpet beetle larvae; test: Insect mortality test, spray tower (Example VI); assay type: in vivo; conditions: 0.05 + 0.2 synergist (piperonyl butoxide) % W/V, 7 days
Method: as §1, §2

Mite = test: Insect mortality test, spray tower (Example VI); assay type: in vivo; conditions: 0.05 + 0.2 synergist (piperonyl butoxide) % W/V, 5 days
Method: as §1, §2

German Cockroach = test: Insect mortality test, spray tower (Example VI); assay type: in vivo; conditions: 0.05 + 0.2 synergist (piperonyl butoxide) % W/V, 2 days
Method: as §1, §2

Adult rice weevils = test: Insect mortality test, spray tower (Example VI); assay type: in vivo; conditions: 0.05 + 0.2 synergist (piperonyl butoxide) % W/V, 3 days
Method: as §1, §2

Pea Aphid = test: Insect mortality test, spray tower (Example VI); assay type: in vivo; conditions: 0.005 + 0.02 synergist (piperonyl butoxide) % W/V, 2 days
Method: as §1, §2

[6] = Mammalian toxicity, LD50 (rat); conditions: in vivo
[7] = 0.0025 + 0.025 PB (piperonyl butoxide) % W/V
[8] = 0.005 + 0.05 PB (piperonyl butoxide) % W/V
[9] = Musca domestica, topical, 24 h, read-out: % Mortality (24 hr.)

CC1(C)C(C=C2CCCC2)C1C(=O)OC1COc2ccccc21 (stereo not drawn) [3-coumaranyl 3-(2,2-tetramethyleneethenyl)-2-dimethylcyclopropanecarboxylate]
housefly mortality compared with the chrysanthemates of Table 1 (houseflies [1]): equivalent results

COc1ccc2c(c1)C(OC(=O)C1C(C)(C)C1(C)C)CO2 (stereo not drawn) [5-methoxy-3-coumaranyl 2,2,3,3-tetramethylcyclopropanecarboxylate]
housefly mortality compared with the chrysanthemates of Table 1 (houseflies [1]): equivalent results

CC1(C)C(C(=O)OC2COc3ccc([N+](=O)[O-])cc32)C1(C)C (stereo not drawn) [5-nitro-3-coumaranyl 2,2,3,3-tetramethylcyclopropanecarboxylate]
housefly mortality compared with the chrysanthemates of Table 1 (houseflies [1]): equivalent results

CC1(C)C(C(=O)OC2COc3ccccc32)C1(C)C (stereo not drawn) [3-coumaranyl 2,2,3,3-tetramethylcyclopropanecarboxylate]
housefly mortality compared with the chrysanthemates of Table 1 (houseflies [1]): equivalent results

CC1(C)C(C(=O)OC2COc3ccc(Cl)cc32)C1(C)C (stereo not drawn) [5-chloro-3-coumaranyl 2,2,3,3-tetramethylcyclopropanecarboxylate]
housefly mortality compared with the chrysanthemates of Table 1 (houseflies [1]): equivalent results

CC(C)=CC1C(C(=O)OC2COc3ccc([N+](=O)[O-])cc32)C1(C)C (stereo not drawn) [5-nitro-3-coumaranyl chrysanthemate]
housefly mortality compared with the chrysanthemates of Table 1 (houseflies [1]): equivalent results

COc1ccc2c(c1)C(OC(=O)C1C(C=C3CCCC3)C1(C)C)CO2 (stereo not drawn) [5-methoxy-3-coumaranyl 3-(2,2-tetramethyleneethenyl)-2,2-dimethylcyclopropanecarboxylate]
housefly mortality compared with the chrysanthemates of Table 1 (houseflies [1]): equivalent results

CC(C)=CC1C(C(=O)OC2COc3ccc(Cl)cc32)C1(C)C (racemic) [Example II, (±) cis,trans-5-chloro-3-coumaranyl chrysanthemate]
% Mortality (24 hr.) (houseflies [1]; [7]): 56%
% Mortality (24 hr.) (houseflies [1]; [8]): 99%
mortality at 0.005 % strength (houseflies [1]; [9]): 5%

CC1(C)C(C=C2CCCC2)C1C(=O)OC1COc2ccc([N+](=O)[O-])cc21 (stereo not drawn) [5-nitro-3-coumaranyl 3-(2,2-tetramethyleneethenyl)-2-dimethylcyclopropanecarboxylate]
housefly mortality compared with the chrysanthemates of Table 1 (houseflies [1]): equivalent results

CC1(C)C(C=C2CCCC2)C1C(=O)OC1COc2ccc(Cl)cc21 (stereo not drawn) [5-chloro-3-coumaranyl 3-(2,2-tetramethyleneethenyl)-2,2-dimethylcyclopropanecarboxylate]
housefly mortality compared with the chrysanthemates of Table 1 (houseflies [1]): equivalent results

COc1ccc2c(c1)C(OC(=O)C1C(C=C(C)C)C1(C)C)CO2 (racemic) [Example III, (±) cis, trans-5-methoxy-3-coumaranyl chrysanthemate]
% Mortality (24 hr.) (houseflies [1]; [8]): 57%
% Mortality (24 hr.) (houseflies [1]; 0.01 + 0.1 PB (piperonyl butoxide) % W/V): 100%
mortality at 0.01 % strength (houseflies [1]; [9]): 0%

CC(C)=CC1C(C(=O)OC2COc3ccccc32)C1(C)C (racemic) [Example I, (±) cis,trans-3-coumaranyl chrysanthemate]
effectiveness against 11 other insects (11 other insects): effective
% Mortality (24 hr.) (houseflies [1]; 0.00125 + 0.0125 PB (piperonyl butoxide) % W/V): 28%
% Mortality (24 hr.) (houseflies [1]; [7]): 93%
mortality at 0.00125 % strength (houseflies [1]; [9]): 5%
mortality at 0.0025 % strength (houseflies [1]; [9]): 6%
mortality at 200 mg/sq ft (German cockroaches; read-out: % Mortality (48 hrs.), Plywood, 200 milligrams per sq. ft., age of residue 1 day, two hours exposure): 85%
mortality at 200 mg/sq ft (German cockroaches; read-out: % Mortality (48 hrs.), Plywood, 200 milligrams per sq. ft., age of residue 3 days, two hours exposure): 83%
mortality at 200 mg/sq ft (German cockroaches; read-out: % Mortality (48 hrs.), Plywood, 200 milligrams per sq. ft., age of residue 7 days, two hours exposure): 93%
mortality at 200 mg/sq ft (German cockroaches; read-out: % Mortality (48 hrs.), Plywood, 200 milligrams per sq. ft., age of residue 14 days, two hours exposure): 85%
mortality at 400 mg/sq ft (German cockroaches; read-out: % Mortality (48 hrs.), Plywood, 400 milligrams per sq. ft., age of residue 1 day, two hours exposure): 83%
mortality at 400 mg/sq ft (German cockroaches; read-out: % Mortality (48 hrs.), Plywood, 400 milligrams per sq. ft., age of residue 3 days, two hours exposure): 83%
mortality at 400 mg/sq ft (German cockroaches; read-out: % Mortality (48 hrs.), Plywood, 400 milligrams per sq. ft., age of residue 7 days, two hours exposure): 90%
mortality at 400 mg/sq ft (German cockroaches; read-out: % Mortality (48 hrs.), Plywood, 400 milligrams per sq. ft., age of residue 14 days, two hours exposure): 73%
mortality at 200 mg/sq ft (German cockroaches; read-out: % Mortality (48 hrs.), Vinyl, 200 milligrams per sq. ft., age of residue 1 day, two hours exposure): 100%
mortality at 200 mg/sq ft (German cockroaches; read-out: % Mortality (48 hrs.), Vinyl, 200 milligrams per sq. ft., age of residue 3 days, two hours exposure): 95%
mortality at 200 mg/sq ft (German cockroaches; read-out: % Mortality (48 hrs.), Vinyl, 200 milligrams per sq. ft., age of residue 7 days, two hours exposure): 70%
mortality at 200 mg/sq ft (German cockroaches; read-out: % Mortality (48 hrs.), Vinyl, 200 milligrams per sq. ft., age of residue 14 days, two hours exposure): 20%
mortality at 400 mg/sq ft (German cockroaches; read-out: % Mortality (48 hrs.), Vinyl, 400 milligrams per sq. ft., age of residue 1 day, two hours exposure): 100%
mortality at 400 mg/sq ft (German cockroaches; read-out: % Mortality (48 hrs.), Vinyl, 400 milligrams per sq. ft., age of residue 3 days, two hours exposure): 100%
mortality at 400 mg/sq ft (German cockroaches; read-out: % Mortality (48 hrs.), Vinyl, 400 milligrams per sq. ft., age of residue 7 days, two hours exposure): 100%
mortality at 400 mg/sq ft (German cockroaches; read-out: % Mortality (48 hrs.), Vinyl, 400 milligrams per sq. ft., age of residue 14 days, two hours exposure): 83%
% Mortality (days) [2]: 100%
% Mortality (24 hr.) (houseflies [3]; Plywood, age of residue 1 day): 100%
% Mortality (24 hr.) (houseflies [3]; Plywood, age of residue 3 days): 98%
% Mortality (24 hr.) (houseflies [3]; Plywood, age of residue 7 days): 83%
% Mortality (24 hr.) (houseflies [3]; Vinyl, age of residue 1 day): 100%
% Mortality (24 hr.) (houseflies [3]; Vinyl, age of residue 3 days): 100%
% Mortality (24 hr.) (houseflies [3]; Vinyl, age of residue 7 days): 59%
% Mortality (days) (Adult stable flies): 100%
% Mortality (days) (Southern Armyworm): 70%
% Mortality (days) (Adult mosquito): 100%
% Mortality (days) [4]: 100%
% Mortality (days) (Mexican Bean Beetle): 80%
% Mortality (days) [5]: 40%
% Mortality (days) (Mite): 69%
% Mortality (days) (German Cockroach): 30%
% Mortality (days) (Adult rice weevils): 100%
% Mortality (days) (Pea Aphid): 65%
LD50 [6]: > 7570 mg/kg
